# In publication PMC6036575, “Reincarnation of Bacteriocins From the Lactobacillus Pangenomic Graveyard” (Frontiers in Microbiology, 2018):
# Entries after “also recorded” stand apart in the source; their conditions may differ.
# How the values were obtained:
# L. innocua DPC3572 = assay: Bacteriocin activity (BU/ml), dilution series in well diffusion assay; format: cell-based, Listeria innocua; details: for Bacteriocin Activity (BU/ml) vs. L. innocua DPC3572: inverse of the highest dilution of bacterial supernatant showing activity in a well diffusion assay
# Procedure: (§1) Bacteriocin activity was determined using well diffusion assays (WDAs). For Tuner^TM (DE3) E. coli transformants both the cell supernatant and the cell lysates were analyzed for antimicrobial activity, whilst only the supernatants were analyzed for L. paracasei NFBC338 cells. Supernatant was isolated by centrifugation of the liquid cultures at 4000 RCF for 15 min, these supernatants were then filtered using 0.20 μm membrane filters. For cell lysates, cell pellets were resuspended in 5 ml of phosphate-buffered saline (PBS), cells were lysed by sonication using a MSE Soniprep 150 (MSE, London, UK). Lysates were subsequently centrifuged at 4000 RCF for 15 min and the resulting supernatants were filtered using 0.20 μm membrane filters. For the indicator plates, 50 μl of an overnight culture of the indicator strain was added to the appropriate media containing 1% agar. Plates were cooled and 7 mm wells were bored in the agar. 50 μl of the cell supernatants/lysates being tested were added to each well and plates were refrigerated for 2 h prior to incubation under the appropriate conditions. WDAs were carried out in triplicate for each bacteriocin.
# (§2) E. coli Tuner^TM (DE3) cells transformed with the newly constructed plasmids were grown in LB supplemented with glucose to maintain a low-copy number and bacteriocin expression was induced by co-incubation of the clones with 50 μM IPTG for 3 h. WDAs were used to identify bacteriocin activity from the bacterial supernatants and cell lysates. Bacteriocins were exclusively found in the bacterial supernatant. Antimicrobial activity was lower in cases where the native leader of the bacteriocin sequence was used; with only four of the nine strains displaying zones of inhibition against a sensitive indicator (pediocin 20336a has an identical leader to pediocin PA-1). For expression in L. paracasei NFBC338, cells were transformed by electroporation with the bacteriocin-containing pNZ44 vectors. Positive transformants were grown overnight and the neutralized cell free supernatant was used to identify bacteriocin production in WDAs.
# 32 indicator strains = assay: Well diffusion assays against the panel of 32 indicator strains; format: cell-based; details: for Total no. of strains inhibited: of 32 indicator strains, supernatant of E. coli transformants encoding the pediocin leader; for antimicrobial activity / spectrum, in words: crude supernatant from the E. coli heterologous host, pediocin PA-1 leader
# Procedure: as §1, §2
# (§3) The spectrum of activity was determined using WDAs against 32 indicator strains for bacteriocins produced by the E. coli transformants encoding the pediocin leader (Table 2). Despite being of the same class of bacteriocins, these novel antimicrobials display a varying spectrum of activity. […] Many of these bacteriocins, however, can inhibit a wide range of Gram positive bacteria including potential pathogens such as Enterococcus faecalis. As with most class IIa bacteriocins, these also display potent anti-listerial activity.
# L. mali DSM 20444 = assay: Well diffusion assay, spectrum of bacteriocin activity; format: cell-based; details: 50 μl filtered supernatant of E. coli Tuner (DE3) transformants encoding the pediocin PA-1 leader, 7 mm wells, triplicate
# Procedure: as §1, §2, §3
# P. clausenii DSM 14800 = assay: as above; format: cell-based; details: 50 μl filtered supernatant of E. coli Tuner (DE3) transformants encoding the pediocin PA-1 leader, 7 mm wells, triplicate
# Procedure: as §1, §2, §3
# E.mundtii LMG 10748 = assay: as above; format: cell-based; details: 50 μl filtered supernatant of E. coli Tuner (DE3) transformants encoding the pediocin PA-1 leader, 7 mm wells, triplicate
# Procedure: as §1, §2, §3
# L. nodensis DSM 16982 = assay: as above; format: cell-based; details: 50 μl filtered supernatant of E. coli Tuner (DE3) transformants encoding the pediocin PA-1 leader, 7 mm wells, triplicate
# Procedure: as §1, §2, §3
# [1] = test system: P. ethanolidurans DSM 22301; assay: as above; format: cell-based; details: 50 μl filtered supernatant of E. coli Tuner (DE3) transformants encoding the pediocin PA-1 leader, 7 mm wells, triplicate
# Procedure: as §1, §2, §3
# L. plantarum DSM 13273 = assay: as above; format: cell-based; details: 50 μl filtered supernatant of E. coli Tuner (DE3) transformants encoding the pediocin PA-1 leader, 7 mm wells, triplicate
# Procedure: as §1, §2, §3
# [2] = test system: Li. monocytogenes DPC 6894; assay: as above; format: cell-based; details: 50 μl filtered supernatant of E. coli Tuner (DE3) transformants encoding the pediocin PA-1 leader, 7 mm wells, triplicate
# Procedure: as §1, §2, §3
# [3] = test system: E. saccharolyticus DPC 4902; assay: as above; format: cell-based; details: 50 μl filtered supernatant of E. coli Tuner (DE3) transformants encoding the pediocin PA-1 leader, 7 mm wells, triplicate
# Procedure: as §1, §2, §3
# L. apodemi DSM 16654 = assay: as above; format: cell-based; details: 50 μl filtered supernatant of E. coli Tuner (DE3) transformants encoding the pediocin PA-1 leader, 7 mm wells, triplicate
# Procedure: as §1, §2, §3
# [4] = test system: Li. monocytogenes WSL 1416; assay: as above; format: cell-based; details: 50 μl filtered supernatant of E. coli Tuner (DE3) transformants encoding the pediocin PA-1 leader, 7 mm wells, triplicate
# Procedure: as §1, §2, §3
# L. crustorum JCM 15951 = assay: as above; format: cell-based; details: 50 μl filtered supernatant of E. coli Tuner (DE3) transformants encoding the pediocin PA-1 leader, 7 mm wells, triplicate
# Procedure: as §1, §2, §3
# [5] = test system: Enterococcus faecalis LMG 7397; assay: as above; format: cell-based; details: 50 μl filtered supernatant of E. coli Tuner (DE3) transformants encoding the pediocin PA-1 leader, 7 mm wells, 1% agar, triplicate
# Procedure: as §1, §2, §3
# [6] = test system: Listeria innocua DPC 3572; assay: as above; format: cell-based; details: 50 μl filtered supernatant of E. coli Tuner (DE3) transformants encoding the pediocin PA-1 leader, 7 mm wells, triplicate
# Procedure: as §1, §2, §3
# [7] = test system: Li. monocytogenes DPC 6893; assay: as above; format: cell-based; details: 50 μl filtered supernatant of E. coli Tuner (DE3) transformants encoding the pediocin PA-1 leader, 7 mm wells, triplicate
# Procedure: as §1, §2, §3
# L. amylophilus DSM 20509 = assay: as above; format: cell-based; details: 50 μl filtered supernatant of E. coli Tuner (DE3) transformants encoding the pediocin PA-1 leader, 7 mm wells, triplicate
# Procedure: as §1, §2, §3
# [8] = test system: Pediococcus stilesii DSM 18001; assay: as above; format: cell-based; details: 50 μl filtered supernatant of E. coli Tuner (DE3) transformants encoding the pediocin PA-1 leader, 7 mm wells, triplicate
# Procedure: as §1, §2, §3
# [9] = produced by E. coli Tuner (DE3)
# [10] = produced by L. paracasei NFBC338, neutralized cell free supernatant
Substance,Bacteriocin Activity (BU/ml) vs. L. innocua DPC3572 (L. innocua DPC3572; [9]),Bacteriocin Activity (BU/ml) vs. L. innocua DPC3572 (L. innocua DPC3572; [10]),Total no. of strains inhibited (32 indicator strains),radius of the zone of inhibition (L. mali DSM 20444),radius of the zone of inhibition (E.mundtii LMG 10748),radius of the zone of inhibition [1],radius of the zone of inhibition [2],radius of the zone of inhibition [3],radius of the zone of inhibition (L. apodemi DSM 16654),radius of the zone of inhibition [4],radius of the zone of inhibition [5],radius of the zone of inhibition [6],radius of the zone of inhibition [7],other results
"SRYYGNGITCG-KHKCTVNWGQAWTCGVNRLANFGH–G————–NC— (bicyclic or more) [Agilicin (Agl), novel pediocin-like class IIa bacteriocin encoded by L. agilis DSM 20509, heterologously expressed]",++ (++ = 320 – 2560 BU/ml),++ (++ = 320 – 2560 BU/ml),14,4.50 ± 0.41 millimeters,3 ± 0 millimeters,3.33 ± 0.47 millimeters,4 ± 0 millimeters,3.33 ± 0.47 millimeters,2.67 ± 0.47 millimeters,2 ± 0.82 millimeters,2.17 ± 0.24 millimeters,5 ± 0 millimeters,2 ± 0 millimeters,radius of the zone of inhibition (P. clausenii DSM 14800): 0.67 ± 0.47 millimeters; radius of the zone of inhibition (L. nodensis DSM 16982): 3.50 ± 0.71 millimeters; radius of the zone of inhibition (L. plantarum DSM 13273): 0.33 ± 0.47 millimeters; radius of the zone of inhibition (L. crustorum JCM 15951): 0.33 ± 0.47 millimeters
"–KNYGNGVYCTKKHGYKVDWGQAWSIIGNNSAANSTTRGAAGWKSK—- [Aquaticin (Aqu), novel pediocin-like class IIa bacteriocin encoded by L. aquaticus DSM 21051; peptide not identified by MALDI-TOF]",,,0,,,,,,,,,,,"antimicrobial activity / spectrum, in words (32 indicator strains; listed as Aquaticin): failed to display antimicrobial activity; antimicrobial activity / spectrum, in words (32 indicator strains; listed as aquaticin): activity was not seen"
"–KYYGNGVHCG-KKTCYVDWGQATASIGKIIVNGWTQHGPWAHR———- (disulfide) [Penocin A (PenA), previously characterized class IIa bacteriocin, here encoded by P. pentosaceus DSM 20336, heterologously expressed]",++ (++ = 320 – 2560 BU/ml),+ (+ = 0 – 160 BU/ml),12,1.50 ± 1.08 millimeters,1.33 ± 0.94 millimeters,2 ± 1.41 millimeters,0.67 ± 0.47 millimeters,1.33 ± 0.94 millimeters,,0.67 ± 0.47 millimeters,0.67 ± 0.47 millimeters,2.50 ± 0.41 millimeters,0.67 ± 0.47 millimeters,radius of the zone of inhibition (P. clausenii DSM 14800): 1 ± 0.82 millimeters; radius of the zone of inhibition (L. amylophilus DSM 20509): 0.67 ± 0.47 millimeters; radius of the zone of inhibition [8]: 0.67 ± 0.47 millimeters
"–KYYGNGVSCG-KHSCSVDWGKATTCTINNSAMAWATSGHQGNHKC—- (bicyclic or more) [Rennicin B (RenB), novel pediocin-like class IIa bacteriocin encoded by L. rennini DSM 20253, heterologously expressed]",,+ (+ = 0 – 160 BU/ml),0,,,,,,,,,,,"level of activity when expressed in L. paracasei NFBC338, in words (L. innocua DPC3572; expressed in L. paracasei NFBC338): equal levels of activity compared to rennicin A; antimicrobial activity / spectrum, in words (32 indicator strains): failed to display antimicrobial activity; also recorded: did not display activity"
"–KYYGNGVSCG-KHTCKVNWGQAWNESVNRWGNSWVNGLTGLRQH— (disulfide) [Futcin (Fut), novel pediocin-like class IIa bacteriocin encoded by L. futsaii JCM 17355, heterologously expressed]",+ (+ = 0 – 160 BU/ml),,,2.17 ± 0.85 millimeters,1.83 ± 0.24 millimeters,3 ± 0 millimeters,0.83 ± 0.24 millimeters,2 ± 0 millimeters,0.33 ± 0.47 millimeters,1 ± 0 millimeters,1.67 ± 0.47 millimeters,2.00 ± 0 millimeters,,Total no. of strains inhibited (32 indicator strains; listed as Fut): 9; Total no. of strains inhibited (32 indicator strains; listed as futcin): nine
"–KYYGNGVSCS-KHSCSVDWGKALTCTINNGAMAWTTGGHQGNHKC—- (bicyclic or more) [Rennicin A (RenA), novel pediocin-like class IIa bacteriocin encoded by L. rennini DSM 20253, heterologously expressed]",+ (+ = 0 – 160 BU/ml),+ (+ = 0 – 160 BU/ml),10,1 ± 0 millimeters,3.33 ± 0.47 millimeters,1.50 ± 0.41 millimeters,2 ± 1.41 millimeters,2.33 ± 0.47 millimeters,0.67 ± 0.47 millimeters,2.67 ± 0.47 millimeters,3 ± 0 millimeters,6.33 ± 0.94 millimeters,2 ± 0 millimeters,
"—-KYYGNGLHIPKHGKPYINWGQAIQSIGKISYHGWVNGITSGAAGVGRH [Acidicin (Acd), novel pediocin-like class IIa bacteriocin encoded by L. acidipiscis DSM 15836, heterologously expressed]",,,1,1.50 ± 0.41 millimeters,,,,,,,,,,"antimicrobial activity / spectrum, in words (32 indicator strains): displayed activity exclusively against L. mali"
